This is an account of results in patent publication US20260355196A1, “INHIBITORS AND DEGRADERS OF PIP4K PROTEIN” (Larkspur Biosciences, Inc., priority 2023, published 2026).

The test concerns the target T1, PIP4K2C (Homo sapiens, UniProt Q8TBX8).
T1 sequence (Q8TBX8 1-421): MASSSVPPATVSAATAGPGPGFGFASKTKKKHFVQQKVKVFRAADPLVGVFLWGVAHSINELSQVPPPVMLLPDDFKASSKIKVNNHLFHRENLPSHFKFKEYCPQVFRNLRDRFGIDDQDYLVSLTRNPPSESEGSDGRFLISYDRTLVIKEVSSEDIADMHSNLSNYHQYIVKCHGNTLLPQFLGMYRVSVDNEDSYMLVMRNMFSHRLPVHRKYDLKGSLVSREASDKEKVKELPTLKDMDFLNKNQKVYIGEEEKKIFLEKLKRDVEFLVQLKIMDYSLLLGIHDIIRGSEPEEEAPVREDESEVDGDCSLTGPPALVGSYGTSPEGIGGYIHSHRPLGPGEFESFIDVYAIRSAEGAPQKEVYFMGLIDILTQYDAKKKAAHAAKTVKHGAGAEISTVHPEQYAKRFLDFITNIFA
The test can be described thus: Enzyme Binding Assay (KINOMEscan): active site-directed competition binding to an immobilized ligand. The arrangement: purchased Eurofins DiscoverX, San Diego, CA 87-0007-1094. The settings on record: 11-point dose response, duplicate, top concentration 5 micromolar; read-out: Pip4k2c Kd: IC50. In short, it runs like this: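 Active site-directed competition binding against an immobilized ligand. 11-point dose-response in duplicate, top concentration 5 micromolar; IC50 from a Hill equation fitted by the Levenberg-Marquardt algorithm.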
For `CC(=O)N1CCC[C@H](Nc2ncc(Cl)c(-c3cccc(-c4ccc(F)cc4)n3)n2)C1` [Compound 194, (S)-1-(3-((5-chloro-4-(6-(4-fluorophenyl)pyridin-2-yl)pyrimidin-2-yl)amino)piperidin-1-yl)ethan-1-one], the IC50 was in the range of 1000 to 5000 nM.

As to `NC(=O)[C@H]1CC[C@H](Nc2ncc(F)c(-c3cccc(-c4cc[nH]c(=O)c4)c3)n2)CC1` [Compound 195, trans-4-((5-fluoro-4-(3-(2-oxo-1,2-dihydropyridin-4-yl)phenyl)pyrimidin-2-yl)amino)cyclohexane-1-carboxamide], the IC50 is under 500 nM.

As for `CC(=O)N1CCC(Nc2ncc(F)c(N3CCCC(c4ccc[nH]c4=O)C3)n2)CC1` (stereo not drawn) [Compound 196, 3-[1-[2-[(1-acetyl-4-piperidyl)amino]-5-fluoro-pyrimidin-4-yl]-3-piperidyl]-1H-pyridin-2-one], the IC50 was under 500 nM.

Take `CC(=O)N[C@H]1CC[C@H](Nc2ncc(F)c(N3CCC[C@@H](C(=O)NC4CC4)C3)n2)CC1` [Compound 197, trans-(R)-1-(2-((4-acetamidocyclohexyl)amino)-5-fluoropyrimidin-4-yl)-N-cyclopropylpiperidine-3-carboxamide]: the IC50 lay within 1000 to 5000 nM.

Consider `CC(=O)N[C@H]1CC[C@H](Nc2ncc(F)c(N3CCC[C@H](C(=O)NC4CC4)C3)n2)CC1` [Compound 198, trans-(S)-1-(2-((4-acetamidocyclohexyl)amino)-5-fluoropyrimidin-4-yl)-N-cyclopropylpiperidine-3-carboxamide], for which the IC50 lay in the range of 1000 to 5000 nM.

Take `CC(=O)N1CCC(Nc2ncc(F)c(N3CCCC(c4ccc(=O)[nH]c4)C3)n2)CC1` (stereo not drawn) [Compound 199, 5-(1-(2-((1-acetylpiperidin-4-yl)amino)-5-fluoropyrimidin-4-yl)piperidin-3-yl)pyridin-2(1H)-one]: the IC50 was in the range of 500 to 1000 nM.

Regarding `CC(=O)N1CCC(Nc2ncc(F)c(-c3cccc(-c4ccc(=O)[nH]c4)c3)n2)CC1` [Compound 202, 5-(3-(2-((1-acetylpiperidin-4-yl)amino)-5-fluoropyrimidin-4-yl)phenyl)pyridin-2(1H)-one], the IC50 is under 500 nM.

As for `CC(=O)N[C@H]1CC[C@H](Nc2ncc(F)c(-c3cccc(-c4ccc(=O)[nH]c4)c3)n2)CC1` [Compound 203, trans-N-(4-((5-fluoro-4-(3-(6-oxo-1,6-dihydropyridin-3-yl)phenyl)pyrimidin-2-yl)amino)cyclohexyl)acetamide], the IC50 is under 500 nM.

In the case of `NC(=O)[C@@H]1CCC[C@H](Nc2ncc(F)c(-c3cccc(-c4ccc[nH]c4=O)c3)n2)C1` [Compound 204, (1R,3S)-3-((5-fluoro-4-(3-(2-oxo-1,2-dihydropyridin-3-yl)phenyl)pyrimidin-2-yl)amino)cyclohexane-1-carboxamide], the IC50 was under 500 nM.

`CC(=O)N1CCC(Nc2ncc(F)c(N3CCOCC3)n2)CC1` [Compound 205, 1-(4-((5-fluoro-4-morpholinopyrimidin-2-yl)amino)piperidin-1-yl)ethan-1-one]: the IC50 was 500 to 1000 nM.

With `CC(=O)N1CCC(Nc2ncc(F)c(-c3cccc(N4CCOCC4=O)c3)n2)CC1` [Compound 206, 4-(3-(2-((1-acetylpiperidin-4-yl)amino)-5-fluoropyrimidin-4-yl)phenyl)morpholin-3-one], the IC50 was under 500 nM.

With `Cc1ccc(=O)n(-c2cccc(-c3nc(N[C@H]4CCC[C@@H](C(N)=O)C4)ncc3F)c2)c1` [Compound 207, (1R,3S)-3-((5-fluoro-4-(3-(5-methyl-2-oxopyridin-1 (2H)-yl)phenyl)pyrimidin-2-yl)amino)cyclohexane-1-carboxamide], the IC50 is under 500 nM.

In the case of `NC(=O)[C@@H]1CCC[C@H](Nc2ncc(F)c(-c3cccc(-n4cc(C(F)(F)F)ccc4=O)c3)n2)C1` [Compound 208, (1R,3S)-3-((5-fluoro-4-(3-(2-oxo-5-(trifluoromethyl)pyridin-1 (2H)-yl)phenyl)pyrimidin-2-yl)amino)cyclohexane-1-carboxamide], the IC50 was under 500 nM.

On to `CC(=O)N1CCC(Nc2ncc(F)c(-c3cccc(N4CCC[C@@H](O)C4)c3)n2)CC1` [Compound 209, (R)-1-(4-((5-fluoro-4-(3-(3-hydroxypiperidin-1-yl)phenyl)pyrimidin-2-yl)amino)piperidin-1-yl)ethan-1-one], for which the IC50 was under 500 nM.

`CC(=O)N1CCC(Nc2ncc(F)c(-c3cccc(N4CCC[C@H](O)C4)c3)n2)CC1` [Compound 210, (S)-1-(4-((5-fluoro-4-(3-(3-hydroxypiperidin-1-yl)phenyl)pyrimidin-2-yl)amino)piperidin-1-yl)ethan-1-one]: the IC50 is under 500 nM.

For the compound `CC(=O)N1CCC(Nc2ncc(F)c(-c3cccc(N4CCC(O)CC4)c3)n2)CC1` [Compound 211, 1-(4-((5-fluoro-4-(3-(4-hydroxypiperidin-1-yl)phenyl)pyrimidin-2-yl)amino)piperidin-1-yl)ethan-1-one], the IC50 is under 500 nM.

`CC(=O)N1CCC(Nc2ncc(F)c(-c3cccc(C(=O)N4CC[C@H](O)C4)c3)n2)CC1` [Compound 212, (S)-1-(4-((5-fluoro-4-(3-(3-hydroxypyrrolidine-1-carbonyl)phenyl)pyrimidin-2-yl)amino)piperidin-1-yl)ethan-1-one]: the IC50 was under 500 nM.

With `CC(=O)N1CCC(Nc2ncc(F)c(-c3cccc(C(=O)N4CC[C@@H](O)C4)c3)n2)CC1` [Compound 213, (R)-1-(4-((5-fluoro-4-(3-(3-hydroxypyrrolidine-1-carbonyl)phenyl)pyrimidin-2-yl)amino)piperidin-1-yl)ethan-1-one], the IC50 is under 500 nM.

`CC(=O)N1CCC(Nc2ncc(F)c(-c3cccc(C(=O)N4CC(O)C4)c3)n2)CC1` [Compound 214, 1-(4-((5-fluoro-4-(3-(3-hydroxyazetidine-1-carbonyl)phenyl)pyrimidin-2-yl)amino)piperidin-1-yl)ethan-1-one]: the IC50 was under 500 nM.

Turning to `CC(=O)N1CCC(Nc2ncc(F)c(N3CCC[C@H](C(=O)N4CC[C@H](O)C4)C3)n2)CC1` [Compound 215, 1-(4-((5-fluoro-4-((S)-3-((S)-3-hydroxypyrrolidine-1-carbonyl)piperidin-1-yl)pyrimidin-2-yl)amino)piperidin-1-yl)ethan-1-one], the IC50 was 1000 to 5000 nM.

Regarding `CC(=O)N1CCC(Nc2ncc(F)c(N3CCC[C@H](C(=O)N4CC[C@@H](O)C4)C3)n2)CC1` [Compound 216, 1-(4-((5-fluoro-4-((S)-3-((R)-3-hydroxypyrrolidine-1-carbonyl)piperidin-1-yl)pyrimidin-2-yl)amino)piperidin-1-yl)ethan-1-one], the IC50 was in the range of 500 to 1000 nM.

As for `CC(=O)N1CCC(Nc2ncc(F)c(-c3cccc(C(=O)N4CCC(O)(CO)CC4)c3)n2)CC1` [Compound 217, 1-[4-[[5-fluoro-4-[3-[4-hydroxy-4-(hydroxymethyl)piperidine-1-carbonyl]phenyl]pyrimidin-2-yl]amino]-1-piperidyl]ethanone], the IC50 is under 500 nM.

On to `CC(=O)N1CCC(Nc2ncc(F)c(-c3cccc(C(=O)N4CCC(O)(CN)CC4)c3)n2)CC1` [Compound 218, 1-(4-((4-(3-(4-(aminomethyl)-4-hydroxypiperidine-1-carbonyl)phenyl)-5-fluoropyrimidin-2-yl)amino)piperidin-1-yl)ethan-1-one], for which the IC50 was under 500 nM.

With `CC(=O)N1CCC(Nc2ncc(F)c(-n3cc(C4CC4)cn3)n2)CC1` [Compound 219, 1-(4-((4-(4-cyclopropyl-1H-pyrazol-1-yl)-5-fluoropyrimidin-2-yl)amino)piperidin-1-yl)ethan-1-one], the IC50 was under 500 nM.

For `CC(=O)N1CCC(Nc2ncc(F)c(-c3cccc(N4CCCOC4=O)c3)n2)CC1` [Compound 220, 3-[3-[2-[(1-acetyl-4-piperidyl)amino]-5-fluoro-pyrimidin-4-yl]phenyl]-1,3-oxazinan-2-one], the IC50 is under 500 nM.

For the compound `CC(=O)N1CCC(Nc2ncc(F)c(-c3cccc(N4CCCCC4=O)c3)n2)CC1` [Compound 221, 1-(3-(2-((1-acetylpiperidin-4-yl)amino)-5-fluoropyrimidin-4-yl)phenyl)piperidin-2-one], the IC50 was under 500 nM.

With `CC(=O)N1CCC(Nc2ncc(F)c(-c3cccc(N4CCCC4=O)c3)n2)CC1` [Compound 222, 1-[3-[2-[(1-acetyl-4-piperidyl)amino]-5-fluoro-pyrimidin-4-yl]phenyl]pyrrolidin-2-one], the IC50 was under 500 nM.

For the compound `NC(=O)[C@@H]1CC[C@H](Nc2ncc(F)c(-c3cccc(-c4ccc[nH]c4=O)c3)n2)C1` [Compound 223, (1R,3S)-3-((5-fluoro-4-(3-(2-oxo-1,2-dihydropyridin-3-yl)phenyl)pyrimidin-2-yl)amino)cyclopentane-1-carboxamide], the IC50 is under 500 nM.

For `CC(=O)N1CCC(Nc2ncc(F)c(N3CCCC(c4cc[nH]c(=O)c4)C3)n2)CC1` (stereo not drawn) [Compound 224, 4-(1-(2-((1-acetylpiperidin-4-yl)amino)-5-fluoropyrimidin-4-yl)piperidin-3-yl)pyridin-2(1H)-one], the IC50 lay within 500 to 1000 nM.

In the case of `CC(=O)N[C@H]1CC[C@H](Nc2ncc(F)c(-c3cccc(N4CCCOC4=O)c3)n2)CC1` [Compound 225, trans-N-(4-((5-fluoro-4-(3-(2-oxo-1,3-oxazinan-3-yl)phenyl)pyrimidin-2-yl)amino)cyclohexyl)acetamide], the IC50 is under 500 nM.

The IC50 is the concentration at which inhibition is half-maximal.
